This is an account of results in patent US12331041B2, “GLP-1 receptor agonists and uses thereof” (Pfizer Inc., priority 2018, dated 2025).

Where a name gives a salt, the structure may show the parent alone.

The target in test [1] is T1, human GLP-1R (Homo sapiens, UniProt P43220, G168S).
T1 construct: expressed in transfected cells
As to the kind of experiment: CHO GLP-1R Clone H6 - Assay 1 (HTRF cAMP agonist assay). As to conditions: for EC50: CHO Clone H6, high GLP-1R density, cAMP, geometric mean; for Emax: CHO Clone H6, relative to saturating full agonist GLP-1 7-36 (1 μM), arithmetic mean. It counts as cell-based. A digest of the protocol:
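CHO Clone H6 cells stably expressing human GLP-1R (G168S) were plated 48 h, then given compound for 30 min at 37° C in HBSS/0.1% BSA/HEPES with 100 μM IBMX and 1% DMSO. cAMP was measured by HTRF against a standard curve.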

Test [2] concerns the target T2, human GLP-1R (Homo sapiens, UniProt P43220, L260F).
T2 construct: expressed in transfected cells; host or cells: CHO Flp-In T-REx, clonal line C6 (pcDNA5-FRT-TO)
As to the kind of experiment: CHO GLP-1R Clone C6 - Assay 2 (HTRF cAMP agonist assay). The note with it: for EC50: CHO clone C6, low GLP-1R density, cAMP, geometric mean; for Emax: CHO clone C6, relative to saturating full agonist GLP-1 (1 μM), arithmetic mean. It is filed as cell-based.

T2 sequence (P43220 24-463 L260F): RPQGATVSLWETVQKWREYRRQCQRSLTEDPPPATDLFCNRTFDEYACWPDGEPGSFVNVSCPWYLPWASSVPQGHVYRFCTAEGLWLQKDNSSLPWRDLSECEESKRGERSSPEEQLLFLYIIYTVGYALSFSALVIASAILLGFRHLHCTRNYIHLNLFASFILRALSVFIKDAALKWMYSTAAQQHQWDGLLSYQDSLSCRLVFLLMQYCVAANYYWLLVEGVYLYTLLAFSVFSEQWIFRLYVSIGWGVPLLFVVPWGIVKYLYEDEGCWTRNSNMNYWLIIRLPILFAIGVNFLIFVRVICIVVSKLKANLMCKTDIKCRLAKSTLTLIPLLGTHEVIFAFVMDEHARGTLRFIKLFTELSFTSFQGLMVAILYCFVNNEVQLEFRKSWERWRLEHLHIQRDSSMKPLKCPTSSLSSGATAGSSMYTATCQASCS
T1 sequence (P43220 24-463 G168S): as the sequence (P43220 24-463 L260F) above, with G145S, F237L counted along it

As to `O=C(O)c1ccc2nc(CN3CCC(c4nccnc4OCc4ccc(Cl)cc4F)CC3)n(Cc3cocn3)c2c1` [Example 21, 2-[(4-{3-[(4-chloro-2-fluorobenzyl)oxy]pyrazin-2-yl}piperidin-1-yl)methyl]-1-(1,3-oxazol-4-ylmethyl)-1H-benzimidazole-6-carboxylic acid, trifluoroacetate salt], the EC50 on human GLP-1R [1] came out at 14 nM; on human GLP-1R [2], 370 nM. The Emax at human GLP-1R [1] came out at 73%; at human GLP-1R [2] it was 91%.
At human GLP-1R [1], `O=C(O)c1ccc2nc(CN3CCC(c4nccnc4OCc4ccc(Cl)cc4F)CC3)n(Cc3ncco3)c2c1` [Example 22, 2-[(4-{3-[(4-chloro-2-fluorobenzyl)oxy]pyrazin-2-yl}piperidin-1-yl)methyl]-1-(1,3-oxazol-2-ylmethyl)-1H-benzimidazole-6-carboxylic acid, trifluoroacetate salt] registered an EC50 of 2.8 nM and an Emax of 85%. On human GLP-1R [2], the response was half-maximal at 23 nM (EC50) and the Emax worked out at 82%.
On human GLP-1R [1], `COCCn1c(CN2CCC(c3nccnc3OCc3ccc(Cl)cc3F)CC2)nc2ccc(C(=O)O)cc21` [Example 23, 2-[(4-{3-[(4-chloro-2-fluorobenzyl)oxy]pyrazin-2-yl}piperidin-1-yl)methyl]-1-(2-methoxyethyl)-1H-benzimidazole-6-carboxylic acid, hydrochloride salt] returned an EC50 of 41 nM and an Emax of 89%. Besides, at human GLP-1R [2], the EC50 came out at 450 nM and the Emax amounted to 94%.
For `O=C(O)c1ccc2nc(CN3CCC(c4nccnc4OCc4ccc(Cl)cc4F)CC3)n(Cc3cnco3)c2c1` [Example 24, 2-[(4-{3-[(4-chloro-2-fluorobenzyl)oxy]pyrazin-2-yl}piperidin-1-yl)methyl]-1-(1,3-oxazol-5-ylmethyl)-1H-benzimidazole-6-carboxylic acid, trifluoroacetate salt], the EC50 on human GLP-1R [1] turned out to be 2 nM; on human GLP-1R [2], 33 nM. For the same compound, the figures for the Emax at human GLP-1R [1] and at human GLP-1R [2] were 76% and 89%, respectively.
On human GLP-1R [1], `N#Cc1ccc(COc2nccnc2C2CCN(Cc3nc4ccc(C(=O)O)cc4n3Cc3ncco3)CC2)c(F)c1` [Example 25, 2-[(4-{3-[(4-cyano-2-fluorobenzyl)oxy]pyrazin-2-yl}piperidin-1-yl)methyl]-1-(1,3-oxazol-2-ylmethyl)-1H-benzimidazole-6-carboxylic acid, trifluoroacetate salt] gave an EC50 of 6.3 nM and an Emax of 80%. On human GLP-1R [2], this compound came in with an EC50 of 73 nM and an Emax of 91%.
Turning to `Cn1cncc1Cn1c(CN2CCC(c3nccnc3OCc3ccc(Cl)cc3F)CC2)nc2ccc(C(=O)O)cc21` [Example 26, 2-[(4-{3-[(4-chloro-2-fluorobenzyl)oxy]pyrazin-2-yl}piperidin-1-yl)methyl]-1-[(1-methyl-1H-imidazol-5-yl)methyl]-1H-benzimidazole-6-carboxylic acid, trifluoroacetate salt], on human GLP-1R [1], a half-maximal effect (EC50) was put at 5.1 nM and the Emax came out at 86%. Besides, on human GLP-1R [2], the EC50 amounted to 38 nM and the Emax came out at 86%.
On to `CCn1cncc1Cn1c(CN2CCC(c3nccnc3OCc3ccc(C#N)cc3F)CC2)nc2ccc(C(=O)O)cc21` [Example 27, 2-[(4-{3-[(4-cyano-2-fluorobenzyl)oxy]pyrazin-2-yl}piperidin-l-yl)methyl]-1-[(1-ethyl-1H-imidazol-5-yl)methyl]-1H-benzimidazole-6-carboxylic acid, trifluoroacetate salt], for which, on human GLP-1R [1], the EC50 was determined as 0.84 nM and the Emax came out at 86%. At human GLP-1R [2], this compound gave an EC50 of 16 nM and an Emax of 85%.
On human GLP-1R [1], `Cn1c(CN2CCC(c3nccnc3OCc3ccc(Cl)cc3F)CC2)nc2ncc(C(=O)O)cc21` [Example 30, 2-[(4-{3-[(4-chloro-2-fluorobenzyl)oxy]pyrazin-2-yl}piperidin-1-yl)methyl]-1-methyl-1H-imidazo[4,5-b]pyridine-6-carboxylic acid, hydrochloride salt] had an EC50 of 140 nM and an Emax of 79%. At human GLP-1R [2], this compound showed an EC50 of 2800 nM and an Emax of 110%.
Taken in the same sequence, the figures for `O=C(O)c1ccc2nc(CN3CCN(c4cccnc4OCc4ccc(Cl)cc4F)CC3)n(C[C@@H]3CCO3)c2c1` [Example 33, Ammonium 2-[(4-{2-[(4-chloro-2-fluorobenzyl)oxy]pyridin-3-yl}piperazin-1-yl)methyl]-1-[(2S)-oxetan-2-ylmethyl]-1H-benzimidazole-6-carboxylate] were 3.1 nM, 93%, 84 nM and 110%.
For `Cn1cncc1Cn1c(C2CC23CCN(c2cccc(OCc4ccc(C#N)cc4F)n2)CC3)nc2ccc(C(=O)O)cc21` (centres unmarked) [Example 37, 2-(6-{6-[(4-cyano-2-fluorobenzyl)oxy]pyridin-2-yl}-6-azaspiro[2.5]oct-1-yl)-1-[(1-methyl-1H-imidazol-5-yl)methyl]-1H-benzimidazole-6-carboxylic acid, trifluoroacetate salt], at human GLP-1R [1], the EC50 was found to be 9.3 nM and the Emax amounted to 88%. Further, on human GLP-1R [2], the EC50 stood at 190 nM and the Emax is 92%.
The like results for `CCn1cncc1Cn1c(C2CC23CCN(c2nc(OCc4ccc(Cl)cc4F)ncc2F)CC3)nc2ccc(C(=O)O)cc21` (centres unmarked) [Example 39, 2-(6-{2-[(4-chloro-2-fluorobenzyl)oxy]-5-fluoropyrimidin-4-yl}-6-azaspiro[2.5]oct-1-yl)-1-[(1-ethyl-1H-imidazol-5-yl)methyl]-1H-benzimidazole-6-carboxylic acid, trifluoroacetate salt, from P7] were, in that order, 1.6 nM, 90%, 29 nM and 95%.
As for `Cn1c(C2CC23CCN(c2nc(OCc4ccc(Cl)cc4F)ncc2F)CC3)nc2ccc(C(=O)O)nc21` (centres unmarked) [Example 40, 2-(6-{2-[(4-chloro-2-fluorobenzyl)oxy]-5-fluoropyrimidin-4-yl}-6-azaspiro[2.5]oct-1-yl)-3-methyl-3H-imidazo[4,5-b]pyridine-5-carboxylic acid, trifluoroacetate salt, from P7], on human GLP-1R [1], it took 150 nM to reach a half-maximal effect (EC50) and the Emax is 77%. At human GLP-1R [2], this compound showed a concentration for a half-maximal effect (EC50) of 2000 nM and an Emax of 100%.
For the compound `O=C(O)c1ccc2nc(C3CC34CCN(c3nc(OCc5ccc(Cl)cc5F)ncc3F)CC4)n(Cc3cocn3)c2c1` (centres unmarked) [Example 43, 2-(6-{2-[(4-chloro-2-fluorobenzyl)oxy]-5-fluoropyrimidin-4-yl}-6-azaspiro[2.5]oct-1-yl)-1-(1,3-oxazol-4-ylmethyl)-1H-benzimidazole-6-carboxylic acid, trifluoroacetate salt, from P7], the EC50 is 13 nM at human GLP-1R [1] and 250 nM on human GLP-1R [2]. Besides, the Emax came out at 75% at human GLP-1R [1] and 70% at human GLP-1R [2].
The like results for `O=C(O)c1ccc2nc(C3CC34CCN(c3nc(OCc5ccc(Cl)cc5F)ncc3F)CC4)n(Cc3cnco3)c2c1` (centres unmarked) [Example 45, 2-(6-{2-[(4-chloro-2-fluorobenzyl)oxy]-5-fluoropyrimidin-4-yl}-6-azaspiro[2.5]oct-1-yl)-1-(1,3-oxazol-5-ylmethyl)-1H-benzimidazole-6-carboxylic acid, trifluoroacetate salt, from P7] were, in that order, 12 nM, 230 nM, 72% and 83%.
